The nature of series [1]: Selectivity index, Ratio of CC50 for Vero cells to IC50 for Rubella virus strain THERIEN. It counts as functional.
Series [2] in a line: Cytotoxicity against Vero cells after 48 hrs. It counts as cell-based. The settings on record: chlorocebus sabaeus.
The nature of series [3]: Antiviral activity against Rubella virus strain THERIEN in Vero cells. It counts as functional, cell-based.
Series [4] is described as follows: Inhibition of Rubella virus strain THERIEN in Vero cells after 48 hrs of high multiplicity infection by plaque assay. It counts as functional. On the set-up: concentration or dose not given beside the values.

Bounds are passed on as bounds.

The results in this text go back to ChEMBL document CHEMBL1142875, “Synthesis and biological evaluation of 4-alkylamino-6-(2-hydroxyethyl)-2-methylthiopyrimidines as new rubella virus inhibitors” (Eur J Med Chem, 2007).

What is called CC50 is the concentration that lowers cell viability or growth by half. One may read the IC50 as the concentration that gives 50% inhibition. A word on the Inhibition: it is the share of the control response that was lost under treatment.

For the compound `C=CCNc1nc(SC)nc(CCO)c1Cl`, the “Ratio CC50/IC50” value in series [1] amounted to 11.1. This compound showed a CC50 at 48 h in series [2] of 481 µM. Further, the IC50 in series [3] is 43.5 µM. The compound also displayed an Inhibition in series [4] of 83%.
For the compound `C#CCNc1nc(SC)nc(CCO)c1I`, in series [1], the “Ratio CC50/IC50” value was 21. In series [2], this compound gave a CC50 at 48 h of 716 µM. In addition, the IC50 in series [3] amounted to 34.1 µM. This compound also came in with an Inhibition in series [4] of 97.3%.
As for `C=CCNc1nc(SC)nc(CCO)c1I`, the “Ratio CC50/IC50” value in series [1] is 22.7. This compound also displayed a CC50 at 48 h in series [2] of 356 µM. Also, in series [3], the IC50 amounted to 15.7 µM. This compound also returned an Inhibition in series [4] of 93.9%.
With `C#CCNc1nc(SC)nc(CCO)c1Br`, in series [1], the “Ratio CC50/IC50” value worked out at 5.6. This compound returned a CC50 at 48 h in series [2] of 827 µM. In series [3], this compound gave an IC50 of 149 µM. The Inhibition in series [4] worked out at 94.4%.
For `C=CCNc1nc(SC)nc(CCO)c1Br`, in that order: 8.1, 411 µM, 50.9 µM and 86.9%.
For `CSc1nc(CCO)cc(NCc2ccc(Cl)cc2Cl)n1`, in series [1], the “Ratio CC50/IC50” value is 3.8. This compound also returned a CC50 at 48 h in series [2] of 182 µM. In addition, inhibition in series [3] was half-maximal at 48 µM (IC50). This compound displayed an Inhibition in series [4] of 76.1%.
For `C#CCNc1cc(CCO)nc(SC)n1`, in that order: 10.4, 1120 µM, 108 µM and 98.8%.
For `CCCCN(CCCC)c1cc(CCO)nc(SC)n1`, in series [1], the “Ratio CC50/IC50” value is on record as 3.9. This compound had a CC50 at 48 h in series [2] of 52.5 µM. Moreover, the midpoint of inhibition in series [3], the IC50, lay at 13.5 µM. Further, the Inhibition in series [4] was found to be 87%.
For `CSc1nc(CCO)cc(N(CCO)CCO)n1`, in series [1], the “Ratio CC50/IC50” value came out at 10.7. This compound also yielded a CC50 at 48 h in series [2] of 1820 µM. In series [3], the IC50 was determined as 170 µM. In series [4], this compound had an Inhibition of 95.7%.
The corresponding values for `CSc1nc(CCO)cc(N2CCC2)n1` are less than 2, 556 µM, greater than 278 µM and 35.6%.
In the case of `CSc1nc(CCO)cc(N2CCN(C)CC2)n1`, in series [1], the “Ratio CC50/IC50” value is less than 2. The compound further returned a CC50 at 48 h in series [2] of 466 µM. This compound yielded an IC50 in series [3] greater than 233 µM. Further, in series [4], the Inhibition was 20.6%.
In the case of `CSc1nc(CCO)cc(N2CCSCC2)n1`, the “Ratio CC50/IC50” value in series [1] was less than 2. Further, it took 461 µM to reach half-maximal cytotoxicity in series [2] (CC50 at 48 h). In series [3], this compound returned an IC50 greater than 231 µM. Further, the Inhibition in series [4] was determined as 45.2%.
Take `CSc1nc(CCO)cc(N2CCN(c3cccc(C(F)(F)F)c3)CC2)n1`: the “Ratio CC50/IC50” value in series [1] stood at 2.2. The compound further gave a CC50 at 48 h in series [2] of 39.2 µM. The IC50 in series [3] is 17.6 µM. The compound also had an Inhibition in series [4] of 58.9%.
The corresponding values for `CSc1nc(CCO)cc(N2CCN(c3ccccc3)CC2)n1` are 3.3, 189 µM, 57 µM and 90%.
`CSc1nc(CCO)cc(N2CCSC2)n1`: the “Ratio CC50/IC50” value in series [1] was found to be 21.6. Also, the CC50 at 48 h in series [2] was found to be 486 µM. For the same compound, in series [3], half-maximal inhibition (IC50) was put at 22.6 µM. Besides, the Inhibition in series [4] turned out to be 95.3%.
Consider `CSc1nc(CCO)cc(N2CCC(C)CC2)n1`, for which, in series [1], the “Ratio CC50/IC50” value worked out at 4.9. Moreover, in series [2], it took 233 µM to reach half-maximal cytotoxicity (CC50 at 48 h). Also, in series [3], the IC50 stood at 47.8 µM. Further, in series [4], the Inhibition is 96.5%.
For `CSc1nc(CCO)cc(N2CCCC2)n1`, the “Ratio CC50/IC50” value in series [1] is 10.9. Also, in series [2], the CC50 at 48 h was found to be 523 µM. In series [3], this compound had an IC50 of 48.1 µM. In addition, the Inhibition in series [4] is reported as 72.6%.
With `CSc1nc(CCO)cc(N(C)Cc2ccccc2)n1`, the “Ratio CC50/IC50” value in series [1] was less than 2. This compound returned a CC50 at 48 h in series [2] of 108 µM. The IC50 in series [3] is greater than 54 µM. The compound also gave an Inhibition in series [4] of 31.9%.
On to `CCCN(C)c1cc(CCO)nc(SC)n1`, for which the “Ratio CC50/IC50” value in series [1] is 20.5. The compound also came in with a CC50 at 48 h in series [2] of 519 µM. It took 25.3 µM to reach half-maximal inhibition in series [3] (IC50). The Inhibition in series [4] was 94.2%.
As for `C#CCN(C)c1cc(CCO)nc(SC)n1`, the “Ratio CC50/IC50” value in series [1] is given as 9.3. Also, the midpoint of cytotoxicity in series [2], the CC50 at 48 h, lay at 1050 µM. The same compound displayed an IC50 in series [3] of 114 µM. In addition, the Inhibition in series [4] worked out at 92.1%.
Turning to `CCCCCNc1nc(SC)nc(CCO)c1Cl`, in series [1], the “Ratio CC50/IC50” value is 6.6. The compound also came in with a CC50 at 48 h in series [2] of 108 µM. In series [3], this compound yielded an IC50 of 16.2 µM. The Inhibition in series [4] worked out at 66.4%.
For the compound `CCCCCNc1nc(SC)nc(CCO)c1I`, in series [1], the “Ratio CC50/IC50” value is reported as 3. Besides, the CC50 at 48 h in series [2] came out at 81.8 µM. In series [3], the IC50 amounted to 27.5 µM. In series [4], the Inhibition was found to be 95.1%.
Regarding `CCCCCNc1nc(SC)nc(CCO)c1Br`, the “Ratio CC50/IC50” value in series [1] came out at 2.5. The compound further gave a CC50 at 48 h in series [2] of 93.3 µM. This compound also showed an IC50 in series [3] of 37.4 µM. Besides, the Inhibition in series [4] is 60%.
Regarding `CCCCCNc1cc(CCO)nc(SC)n1`, the “Ratio CC50/IC50” value in series [1] is given as 11.4. The compound also had a CC50 at 48 h in series [2] of 245 µM. Besides, in series [3], the IC50 came out at 21.6 µM. Also, the Inhibition in series [4] stood at 94.7%.
Take `COc1ccccc1N1CCN(c2cc(CCO)nc(SC)n2)CC1`: the “Ratio CC50/IC50” value in series [1] was found to be 6.2. The compound also showed a CC50 at 48 h in series [2] of 174 µM. Besides, the IC50 in series [3] was found to be 27.8 µM. This compound also displayed an Inhibition in series [4] of 96.1%.
As for `CSc1nc(CCO)cc(N2CCN(C(C)=O)CC2)n1`, the “Ratio CC50/IC50” value in series [1] was 8.6. The same compound came in with a CC50 at 48 h in series [2] of 422 µM. In series [3], this compound had an IC50 of 49 µM. This compound also returned an Inhibition in series [4] of 65.6%.
The corresponding values for `COc1ccc(Nc2cc(CCO)nc(SC)n2)cc1` are less than 2, 430 µM, greater than 215 µM and 43.3%.
For `C=CCN(CC=C)c1cc(CCO)nc(SC)n1`, in that order: 2.2, 249 µM, 112 µM and 54.7%.
For `CSc1nc(CCO)cc(N2CCN(c3ccc(F)cc3)CC2)n1`, in that order: 3.5, 180 µM, 51.7 µM and 93.2%.
Turning to `CSc1nc(CCO)cc(N(C)C)n1`, in series [1], the “Ratio CC50/IC50” value is 7.3. This compound registered a CC50 at 48 h in series [2] of 587 µM. For the same compound, the IC50 in series [3] stood at 80.7 µM. The Inhibition in series [4] came out at 92.8%.
For `C#CCNc1nc(SC)nc(CCO)c1Cl`, in that order: 3.6, 485 µM, 136 µM and 85.4%.
In the case of `CCCN(CCC)c1cc(CCO)nc(SC)n1`, the “Ratio CC50/IC50” value in series [1] is less than 2. Also, it took 58 µM to reach half-maximal cytotoxicity in series [2] (CC50 at 48 h). In series [3], this compound displayed an IC50 greater than 29 µM. In series [4], this compound registered an Inhibition of 0%.
